The values below come from US12365705B2, “Epitope tags recognized by specific binders” (NANOTAG BIOTECHNOLOGIES GmbH, priority 2018, dated 2025).

Some results are limits rather than exact numbers.

The subject of series [1] is NbALFA^PE (SEQ ID NO: 134). Kind of series: Off-rate assay: peptide elution of ALFA^ST-tagged shGFP2 from ALFA Selector^PE resin. The series is classed as binding, Alpaca. Particulars: for t1/2: peptide elution from ALFA Selector^PE. The procedure:
FIG. 8: Interaction of ALFA^ST-tagged proteins with ALFA Selector^ST and ALFA Selector^PE resins. • A; Sketch of ALFA Selector resins bound to shGFP2-ALFA^ST. In this sketch, the ALFA Selector resin could be ALFA Selector^ST or ALFA Selector^PE. • B and C; Peptide elution from NbALFA-coupled affinity resins. […] To estimate off-rates, the resins were suspended PBS containing an excess of free ALFA^ST peptide and incubated at 25° C. Control reactions were carried out without peptide. At indicated time points, shGFP2 released from the resin was quantified. […] Lines represent fits to a single exponential. Efficient peptide elution of shGFP2-ALFA^ST from ALFA Selector^E was observed already after 15-20 min at room temperature. […] A photo was taken upon UV illumination after 3 h of elution (C). • D; Resistance towards stringent washing steps. ALFA Selector variants described in B were charged with either ALFA^ST-shGFP2 or shGFP2-ALFA^ST and incubated with a 10-fold volume of the indicated substances for 1 h at 25° C. with shaking. Without further washing steps, photos were taken upon UV illumination after sedimentation of the beads. • E; Resistance towards non-physiological pH. Similar to D. Here, however, the resin was washed to remove non-bound material after incubating at indicated pH for 30 min. Photos were taken after re-equilibration in PBS to allow for recovery of the GFP fluorescence.
After washing with PBS, the beads were suspended in a 10-fold excess of PBS containing 200 μM free ALFA^ST peptide and gently mixed at 25° C. Control reactions were carried out without peptide. At indicated time points, specific elution from the beads was quantified using the GFP fluorescence released into the supernatant. Shown are mean fluorescence readings of three experiments as well as standard deviations for each time point. Lines represent fits to a single exponential. Half times are given for peptide elution from ALFA Selector^PE only. […] FIG. 10A recapitulates data shown in FIG. 8B and is repeated here to allow for a direct comparison. Left panels: Sketch illustrating the experimental setup. The ALFA Selector resin could be ALFA Selector^ST or ALFA Selector^PE; middle panels: Experiments performed with ALFA Selector^ST; right panel: Experiments performed with ALFA Selector^PE.
Next, we site-specifically immobilized NbALFA^ST on an agarose-based resin with ultra-low background via a hydrophilic and flexible linker. Binding to the nanobody-coupled resin was analyzed using an ALFA^ST-tagged GFP variant (shGFP2; Frey, S. et al. Surface Properties Determining Passage Rates of Proteins through Nuclear Pores. Cell 174, 202-217.e9 (2018); FIG. 8A, B). As expected, shGFP2-ALFA^ST efficiently and tightly bound to the resulting resin. […]

Series [2] has as its system NbALFA^ST (SEQ ID NO: 133). The experiment in a line: Off-rate assay: peptide elution of ALFA-tagged shGFP2 fusions from ALFA Selector^ST resin. In kind it is binding, Alpaca.
Experimental: After washing 4 times with PBS, the beads were suspended in a 10-fold excess of PBS containing 200 μM ALFA^ST peptide (Ac-[sequence]-Amide, SEQ ID NO: 179) and gently mixed at room temperature. At indicated time points, specific elution from the beads was quantified using the GFP fluorescence released into the supernatant. Shown are mean fluorescence values from three independent experiments performed in parallel and standard deviations for each time point. […] C, 10 μl of ALFA Selector^ST resin saturated with either ALFA^ST-shGFP2 (top row) or ALFA^PE-shGFP2 (bottom row) were transferred into 8-well PCR strips. After removing remaining liquid, the beads were incubated with 10 μl of the indicated substances for 60 min at room temperature. Photos were taken after sedimentation of the beads.
20 μl ALFA Selector^ST or ALFA Selector^PE (NanoTag Biotechnologies) was saturated with the respective recombinant target protein. After washing 4× with PBS, the beads were suspended in a 10-fold excess of PBS containing 200 μM free ALFA^ST peptide and mixed at 25° C. Control reactions were carried out without peptide. At indicated time points, specific elution from the beads was quantified using the GFP fluorescence released into the supernatant (Q-Bit 3.0; Thermo-Fischer Scientific). Three independent experiments were performed in parallel. Mean values, standard deviations and exponential fits were calculated using GraphPad Prism 5.0. Photographic pictures were taken upon UV illumination using a Nikon D700 equipped with a 105 mm macro lens (Nikon).
For series [3] the following is noted: property of tag; cited from earlier work.
Series [4] has as its system ALFA^ST-tagged target proteins (ALFA^ST-Vimentin or Tom70-EGFP-ALFA^ST). The experiment in a line: Intrabody-based detection in co-transfected COS-7 cells. The series is classed as cell-based. Particulars: co-expression in cytoplasm. From the text:
Grey boxes indicate CDRs 1-3 (AbM definition, SEQ ID NOs: 115-117). • C: COS-7 cells transfected with Tom70-EGFP-ALFA^ST (upper row) or Tom70-EGFP-ALFA^PE (lower row) were fixed with 4% paraformaldehyde. […] First column: FluoTag-X2 anti-ALFA; second column: target detection using the intrinsic EGFP fluorescence; third column: overlay incl. […] Right column: Sketch of ALFA-tagged vimentins detected by fluorescently labeled NbALFA^ST. • E: Intrabody-based detection of ALFA^ST-tagged proteins. COS-7 cells were co-transfected with an NbALFA^ST-mScarlet-I fusion and ALFA^ST_tagged target proteins. Target proteins were detected via EGFP fluorescence (for TOM70-EGFP-ALFA^ST) or immunofluorescence using FluoTag anti-ALFA AbberiorStar635P (for ALFA^ST-FLAG-Vimentin). In parallel, NbALFA^ST-mScarlet-I was detected by the red mScarlet-I fluorescence. Note the excellent co-localization between the target protein (left column) and the mScarlet-I signal (middle column).
We next wanted to know if our NbALFA^ST can also be used as an intrabody. […]

Chain of NbALFA^PE (SEQ ID NO: 134) (as listed by the source): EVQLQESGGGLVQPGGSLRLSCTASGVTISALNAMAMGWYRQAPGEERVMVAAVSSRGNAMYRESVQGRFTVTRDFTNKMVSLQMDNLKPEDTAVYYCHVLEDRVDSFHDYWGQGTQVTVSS

“ALFA^ST-shGFP2: GFP variant shGFP2 with N-terminal ALFA^ST tag”: in series [1] (N-terminal ALFA^ST tag), the t1/2 was about 0.833 min. The “protein remained on the resin” value in series [2] (after 90 minutes competition with 10 column volumes of 200 μM ALFA^ST peptide) is over 95%.
YPYDVPDYA [HA-tag]: the Water solubility result in series [3] is “poor”.
“shGFP2-ALFA^ST: GFP variant shGFP2 with C-terminal ALFA^ST tag”: the “time to efficient release from ALFA Selector^PE” value in series [1] (native conditions, room temperature, competition with free ALFA^ST peptide) lay in the range of 15 to 20 min. The “washing time over which target protein remained stably bound to ALFA Selector^PE” value in series [1] (no free peptide) was over 1 h. Moreover, in series [1] (C-terminal ALFA^ST tag), the t1/2 is on record as about 3 min. Moreover, the “protein remained on the resin” value in series [2] (after 60 minutes competition with 10 column volumes of 200 μM ALFA^ST peptide) is over 95%. Besides, the “peptide elution from ALFA Selector^ST” value in series [2] (excess of free ALFA^ST peptide (200 μM)) is “inefficient even after prolonged incubation”.

B1: NbALFA^ST fused to mScarlet-I: NbALFA^ST fused to red fluorescent protein mScarlet-I, used as intrabody (protein)
chain: MGSGDASDSEVQLQESGGGLVQPGGSLRLSCTASGVTISALNAMAMGWYRQAPGERRVMVAAVSERGNAMYRESVQGRFTVTRDFTNKMVSLQMDNLKPEDTAVYYCHVLEDRVDSFHDYWGQGTQVTVSSEPKTPKPQTSGSTGENVATMVSKGEAVIKEFMRFKVHMEGSMNGHEFEIEGEGEGRPYEGTQTAKLKVTKGGPLPFSWDILSPQFMYGSRAFIKHPADIPDYYKQSFPEGFKWERVMNFEDGGAVTVTQDTSLEDGTLIYKVKLRGTNFPPDGPVMQKKTMGWEASTERLYPEDGVLKGDIKMALRLKDGGRYLADFKTTYKAKKPVQMPGAYNVDRKLDITSHNEDYTVVEQYERSEGRHSTGGMDELYK
modifications: fusion protein
notes: NbALFA^ST fused to red fluorescent protein mScarlet-I, used as intrabody
On to B1, for which the “co-localization of mScarlet-I signal with target protein” value in series [4] was “robustly co-localized”.
